In series [1] the test system is HL-60 cells. In words: Subcellular copper content by BCA assay after elesclomol-Cu treatment. The class given is cell-based, human. As to conditions: HL-60 cells treated for 2 hours. The method, then:
(§1) Human peripheral blood mononuclear cells (PBMCs) from 3 independent donors and human promyelotic tumor cell line HL-60 were treated with the elesclomol-Cu complex for 2 hours. Cells were subsequently fractionated into cytosolic, nuclear or mitochondrial fractions and the subcellular copper content was determined by BCA assay.

Series [2] concerns peripheral blood mononuclear cells (PBMCs). The description is as above. It counts as cell-based, human. The settings on record: PBMCs from 3 donors treated for 2 hours. The method, then:
as §1

Series [3] deals with mitochondria isolated from HL-60 cells. The experiment in a line: MitoSox Red ROS assay in isolated mitochondria. It counts as cell-based, human. As to conditions: HL-60-derived mitochondria, 0.2 μM and 1 μM, 30 minutes. The method, then:
Mitochondria isolated from PBMCs or from HL-60 cells were treated for 30 minutes with either DMSO, free copper (CuCl2) at the concentrations of 0.2 μM and 1 μM, disulfiram-Cu complex (DSF-Cu) at the concentrations of 0.2 μM and 1 μM, and elesclomol-Cu complex at the concentrations of 0.2 μM and 1 μM. Subsequent to incubation, ROS levels were measured by MitoSox Red. The results of the MitoSox Red assay are shown in FIG. 2 as mean±SD of experiments with PBMCs isolated from three independent donors or with three individual experiments with HL-60.

A short description of series [4]: Pharmacokinetics of I.V. bolus and continuous infusion (Alzet pump) in mice. It counts as in vivo, Mouse.
Method: (§2) Mice received elesclomol salt administered in a single I.V. bolus dose of 50 mg/kg. Mice also received elesclomol salt administered by continuous infusion via Alzet pump. The pump was filled with a 40 mg/mL solution of elesclomol salt, and the solution was administered at 1 ml/hr, for a total daily dose of 32 mg/kg/day, based on average body weight of 30 g. The solution was delivered continuously for 7 days, and exposure was calculated from plasma levels collected at 70 hours post pump implantation.
The subject of series [5] is HL-60 cells enriched with ^63Cu. The experiment in a line: Cellular 63Cu and 65Cu levels by ICP-MS. The class given is cell-based, human. As to conditions: 100 nM, 0, 0.5, 3 and 9 hours, 10% FBS medium. The method, then: A complex of elesclomol with ^65Cu was prepared. HL-60 cells enriched with ^63Cu were treated with 100 nM elesclomol-^65Cu or 100 nM free ^65Cu for 0, 0.5, 3 and 9 hours in 10% FBS medium. Cellular ^63Cu and ^65Cu levels were measured by inductively coupled plasma mass spectroscopy (ICP-MS).

Series [6] concerns HL-60 cells. In words: Cellular copper and elesclomol levels after elesclomol incubation. The class given is cell-based, human. The settings on record: 100 nM, 3 hours. The method, then:
PBMCs and HL-60 cells were incubated with a vehicle (DMSO) or with 100 nM elesclomol for 3 hours. Subsequent to incubation, cellular copper levels and elesclomol levels for PBMCs and HL-60 cells were determined and are shown in FIG. 3.

Series [7] in a line: Mouse toxicity study of elesclomol salt continuously administered via Alzet pump. On the set-up: species or system mice of strain CD1. As to conditions: in vivo. The method, then:
A total of 15 mice of strain CD1 were used for the toxicity study, of which 10 were in the elesclomol salt treatment group, and 5 were in the control group. Alzet pump was filled with a total of 200 μl of infusion solution and implanted subcutaneously within 1-2 hours. The infusion solution was continuously delivered for 7 days, and the pump was replaced with a new pump at day 8.

The nature of series [8]: Pharmacokinetics of 1-hour infusion in humans. The settings on record: Human, 200 mg/m^2.
Method: as §2

As for `CN1C(c2ccccc2)=[S][Cu]23[S]=C(c4ccccc4)N(C)[N]2C(=O)CC(=O)[N]13` [Elesclomol-Cu], the “relative copper levels in the nuclear, cytosolic and mitochondrial fractions” value in series [1] is reported as “copper levels increased only in HL-60 cells, particularly, in the mitochondrial fraction”; in series [2], “increased only in HL-60 cells”. Further, the “ROS levels (MitoSox Red)” value in series [3] is listed as “induces ROS in HL-60-derived mitochondria”. Also, the Exposure/day is on record as 516 h * ng/mL/d in series [4] (mouse, in vivo, 32 mg/kg/day) and 670 h * ng/mL/d in series [4] (mouse, in vivo, iv, 50 mg/kg).
Turning to `CN1C(c2ccccc2)=[S][65Cu]23[S]=C(c4ccccc4)N(C)[N]2C(=O)CC(=O)[N]13` [elesclomol-^65Cu], in series [5], the “accumulation of ^63Cu in cells” value is “cause accumulation of ^63Cu in HL-60 cancer cells” and the “amount of copper accumulated in the cells versus length of exposure” value is “directly proportional to the length of time”.
`CN(NC(=O)CC(=O)NN(C)C(=S)c1ccccc1)C(=S)c1ccccc1` [elesclomol, Elesclomol]: in series [6] (HL-60 cells), the cellular copper levels result is “remarkably and selectively elevated”. The cellular elesclomol levels entry in series [6] (HL-60 cells compared with PBMCs) is listed as “slightly lower than that in PBMCs”. Besides, the Exposure/day in series [4] (Mouse, elesclomol salt I.V. bolus, 50 mg/kg) is listed as 5140 h * ng/mL/d; in series [4] (Mouse, elesclomol salt by continuous infusion (pump), 32 mg/kg/d, calculated from plasma levels at 70 hours post pump implantation), 1183 h * ng/mL/d; in series [8], 4938 h * ng/mL/d. Besides, the “overall toxicity / adverse effects” value in series [7] was “not associated with acute toxicity”.
